According to patent publication US8877732B2, “Combination, kit and method of reducing intraocular pressure” (Inotek Pharmaceuticals Corporation, priority 2010, dated 2014):

Assays:
[1] = system: intraocular pressure (IOP) in normotensive monkeys; assay: Multidose study: twice-daily topical Compound A suspension with once daily topical latanoprost, IOP in conscious monkeys; assay type: in vivo, cynomolgus monkeys (Macaca fascicularis)
Experimental: Ten female, ocular normotensive cynomolgus monkeys (Macaca fascicularis), aged 3 to 4 years old at initiation of treatment, were acclimated to ocular topical dosing and repeated IOP measurements using a pneumatonometer (Model 30 Classic) without general anesthesia or sedation (conscious) and dosed as indicated in Table 1.
Intraocular pressure was measured from both eyes (three readings/eye/time interval with mean values represented in the data tables) beginning approximately 1 hour predose, at Time 0 (just prior to dosing), and after dosing at various time intervals. Mean IOP values and the percent change in IOP levels from the baseline level were calculated. The FIGS. 5 and 6 show summarized data from this phase of the study of the combined IOP mean values of treatments and standard deviation of the mean for the control. The control plot includes the combined mean values of all treatments (BSS alone and BSS in combination with Placebo). The mean IOP levels in the control eye ranged from 21 to 22 mmHg.

[2] = system: intraocular pressure (IOP) in normotensive monkeys; assay: IOP after single topical ocular dosing of Compound A with or after latanoprost in conscious normotensive monkeys (Treatments 1-5); assay type: in vivo, cynomolgus monkeys (Macaca fascicularis); conditions: pre-clinical studies
Experimental: Compound A was administered in two different formulations: […]
The aqueous formulation comprised of the following: […]
The control in the first treatment was a 40 mcL composition of 0.8% sodium chloride (NaCl), 0.15% citrate, 0.01% benzalkonium chloride, 0.3% polysorbate 80, and 0.7% sodium (Na) carboxymethylcellulose.
In the third treatment, 10 monkeys received latanoprost (Xalatan™) dosed via 2 drops at 15 mcL apart (at a concentration of 50 mcg/mL) for a total dose of 1.5 mcg in one study eye and 2 drops of saline vehicle in the contralateral eye. This treatment was performed at two separate times with a sufficient washout between treatments. The IOPs of both the study eye and contralateral eye were measured repeatedly using a calibrated pneumotonometer following an application of a topical anesthetic (proparacaine).
In the fourth treatment, 10 monkeys received latanoprost (Xalatan™) topically dosed via 2 drops at 15 mcL apart (at a concentration of 50 mcg/mL) for a total dose of 1.5 mcg in one study eye and saline in the contralateral eye. […] The intraocular pressures (IOP) of both the study eye and contralateral eye were measured repeatedly using a calibrated pneumotonometer following an application of a topical anesthetic (proparacaine). […]

[3] = Compound A 65 μg/dose BID plus latanoprost 1.5 μg QD, right eye

## O=[N+]([O-])OC[C@H]1O[C@@H](n2cnc3c(NC4CCCC4)ncnc32)[C@H](O)[C@@H]1O [Compound A, ((2R,3S,4R,5R)-5-(6-(cyclopentylamino)-9H-purin-9-yl)-3,4-dihydroxytetrahydrofuran-2-yl)methyl nitrate]
[1]; Compound A 65 μg/dose BID (130 μg/day) suspension plus latanoprost 1.5 μg QD, right eye, 1 hour after each Compound A dose (Time 0 and 5 hours)
  reduction in IOP compared with latanoprost alone: greater reduction in IOP
[1]; [3]
  IOP reduction at peak trough after the first daily dose: approximately 12%
  IOP reduction at peak trough after the second daily dose: ~17%
[2]
  IOP reduction by the combination of Compound A and latanoprost: significant IOP reduction

## CC(C)OC(=O)CCC/C=C\C[C@@H]1[C@@H](CC[C@@H](O)CCc2ccccc2)[C@H](O)C[C@@H]1O [latanoprost, isopropyl-(Z)-7[(1R,2R,3R,5S)3,5-dihydroxy-2-[(3R)-3-hydroxy-5-phenylpentyl]cyclopentyl]-5-heptenoate, reference compound]
[1]; latanoprost alone 1.5 μg/dose once daily topical, right eye, at peak trough
  reduction from the mean IOP baseline levels: approximately 13%
[1]; latanoprost alone 1.5 μg/dose once daily topical, right eye, repeated dosing, n=10
  reduction of mean IOP levels at peak trough: about 2 mm Hg
[1]; latanoprost alone, after repeated treatments for two weeks, including pre-dose times
  IOP of treated eyes versus control eyes: slightly lower than that of the control eyes
